Marks after values point to notes of the source that are not given here.
Assays:
SK-hep1 liver tumors = test: Transplanted tumor in nude mice, intraperitoneal, SK-hep1; assay type: in vivo, BALB/c nude mice; details: 8 administrations; for Tumor inhibition rate / Tumor weight: SK-hep1, 5 mg/kg i.p. once every 3 days; for Body Weight After administration: SK-hep1 tumor-bearing BALB/c mice, 5 mg/kg i.p. once every 3 days
Method: (§1) BALB/c nude mice were used to inoculate Bel-7402, HepG-2 and SK-hep1 liver tumors according to the transplanted tumor research method under aseptic operation, and the cell density was not less than 5×10^6/ml, 0.2 ml was inoculated subcutaneously in the axilla of the right hind limb of each mouse. After the cells were inoculated, the cells were administered intraperitoneally (concentration: 5 mg/kg), once every 3 days, for a total of 8 administrations. After the 2nd day of drug withdrawal, all tumor-bearing mice were sacrificed, and their body weight, tumor weight and tumor inhibition were weighed.

Lung cancer H460 cells = test: In vitro antitumor activity test (MTT), H460; assay type: cell-based; details: Homo sapiens, NCI-H460, 24 h
Method: (§2) 13 human tumor cell lines were selected and cultured in RPMI-1640 medium (Gibco company) containing 10% inactivated fetal bovine serum, 100 U/ml penicillin and 100 U/ml streptomycin, cultured at 37° C. in a 5% CO2 incubator, and passaged once every 2 days. Using the MTT method, cells in the logarithmic growth phase were digested with 0.25% trypsin, centrifuged at 1000 r/min for 5 min, 8×10^3 cells were added to each well, and seeded in a 96-well plate, and 180 μl of cell suspension was added to each well, and a blank was set at the same time. The 96-well plate inoculated with tumor cells was placed in a carbon dioxide incubator for 24 hours, and then 20 μl of the drug was added, and an equal volume of culture medium was added to the blank control well, and the drug was divided into 8 concentrations from 50 μg/L to 0.4 μg/L. Three duplicate wells were set for each drug concentration and placed in an incubator for 24 h. 10 μl of MTT solution (5 mg/ml) was added to each well, and the culture was continued for 4 h. The supernatant was aspirated and discarded, 100 μl of dimethyl sulfoxide (DMSO) solution was added to each well, placed on a micro shaker for 10 min, and the absorbance (A value) was measured at a wavelength of 492 nm in a microplate reader, and the inhibition rate of the drug on tumor cells was calculated according to the following formula.
(§3) In this test, the IC50 value of the compound on tumor cells was calculated by the Origin software according to the inhibition rate of the compound. AC-201 in the following table was the abbreviation of PL-AC-201, and so on.

Bel-7402 liver tumors = test: Transplanted tumor in nude mice, intraperitoneal, Bel-7402; assay type: in vivo, BALB/c nude mice; details: 8 administrations; for Tumor inhibition rate / Tumor weight: Bel-7402, 5 mg/kg i.p. once every 3 days; for Body Weight After administration: Bel-7402 tumor-bearing BALB/c mice, 5 mg/kg i.p. once every 3 days
Method: as §1

human red blood cells = test: Detection of hemolytic activity; assay type: cell-based
Method: 2-3 ml of human blood was drawn using an anticoagulant tube, thoroughly mixed, and kept at 4° C. for later use. 2 ml of blood was aspirated and added with 2-3 ml of PBS, followed by gently pipetting and centrifugation for 5 min at 1000 rpm, which was repeated 3-4 times. After the last centrifugation, PBS was aspirated, PBS was added to 40 ml (20 times the volume), and the number of blood cells at this time was 2×10^8 cells/ml. The red blood cell suspension was added to the plate (U-shaped 96-well plate), and 70 μl/well was used as a negative well. Only PBS was added to blank wells, 140 μl/well. 2 ml of the red blood cell suspension was centrifuged, PBS was discarded, 2 ml of pure water was added, mixed well, and 140 μl/well was used as a positive well. The diluted polypeptide solutions of different concentrations were added to the plate, 70 μl/well. Incubated at 37° C., 87 rpm, shaken for 2h, centrifuged for 5 min at 3000 rpm. The OD value measured by microplate reader: After centrifugation, 90 μl of supernatant was drawn and transferred to a flat-bottom 96-well plate, and the OD value at 578 nm was measured by microplate reader. ODtest-OD negative >0.1 (the first concentration that met the conditions was MHC).

[1] = system: Human osteosarcoma MG63 cells; test: In vitro antitumor activity test (MTT), MG63; assay type: cell-based; details: MG-63, 24 h
Method: as §2, §3

[2] = system: Liver cancer Bel-7402 cells; test: In vitro antitumor activity test (MTT), Bel-7402; assay type: cell-based; details: Homo sapiens; Liver cancer Bel-7402, MTT, 24 h
Method: as §2, §3

Melanoma B16 cells = test: In vitro antitumor activity test (MTT), B16; assay type: cell-based; details: 24 h
Method: as §2, §3

[3] = Acute toxicity test of single administration to ICR mice; details: mouse, in vivo, intravenous, single tail vein injection, observed 7 days
Method: ICR mice, 18-22 g, were raised in a common-grade animal room, fed with common feed, and ingested freely. The group distance and dose were determined after exploring the Dm and Dn of the compounds of the examples. Five concentrations of the compounds of the examples were formulated at the desired dose. The corresponding doses of drugs were injected into the tail vein according to body weight, and the blank control group was injected with normal saline. Immediately after administration, the performance and death of each animal were observed and recorded, and the possible toxic reaction or death of animals within 7 days after a single administration was observed and recorded.

Lung cancer H292 cells = test: In vitro antitumor activity test (MTT), H292; assay type: cell-based; details: Homo sapiens, NCI-H292, 24 h
Method: as §2, §3

[4] = system: Liver cancer HepG-2 cells; test: In vitro antitumor activity test (MTT), HepG-2; assay type: cell-based; details: Homo sapiens, HepG2; Liver cancer HepG-2, MTT, 24 h
Method: as §2, §3

Lung cancer H1299 cells = test: In vitro antitumor activity test (MTT), H1299; assay type: cell-based; details: Homo sapiens, NCI-H1299, 24 h
Method: as §2, §3

HepG-2 liver tumors = test: Transplanted tumor in nude mice, intraperitoneal, HepG-2; assay type: in vivo, BALB/c nude mice; details: 8 administrations; for Tumor inhibition rate / Tumor weight: HepG-2, 5 mg/kg i.p. once every 3 days; for Body Weight After administration: HepG-2 tumor-bearing BALB/c mice, 5 mg/kg i.p. once every 3 days
Method: as §1

[5] = system: Liver cancer SK-hep1 cells; test: In vitro antitumor activity test (MTT), SK-hep1; assay type: cell-based; details: Homo sapiens, 24 h
Method: as §2, §3

[6] = system: 13 human tumor cell lines; test: Average IC50 over the tumor cell lines (MTT); assay type: cell-based; details: mean IC50 for each tumor, read-out: AverageIC50
Method: as §2, §3
The ratio of the hemolytic concentration MHC of the compound to the mean IC50 for each tumor was referred to as the therapeutic index (TI). The safety of the compound was evaluated by the therapeutic index. The higher the therapeutic index, the greater the safety range of the compound.

[7] = system: Cervical cancer Hela cells; test: In vitro antitumor activity test (MTT), Hela; assay type: cell-based; details: Homo sapiens, 24 h
Method: as §2, §3

[8] = system: Pancreatic cancer Bxpc-3 cells; test: In vitro antitumor activity test (MTT), Bxpc-3; assay type: cell-based; details: Homo sapiens; Pancreatic cancer Bxpc-3, MTT, 24 h
Method: as §2, §3

Colon cancer HT29 cells = test: In vitro antitumor activity test (MTT), HT29; assay type: cell-based; details: Homo sapiens, HT-29, 24 h
Method: as §2, §3

[9] = system: Breast cancer MCF-7 cells; test: In vitro antitumor activity test (MTT), MCF-7; assay type: cell-based; details: Homo sapiens, MCF7; Breast cancer MCF-7, MTT, 24 h
Method: as §2, §3

Lung cancer A549 cells = test: In vitro antitumor activity test (MTT), A549; assay type: cell-based; details: Homo sapiens, 24 h
Method: as §2, §3

[10] = human red blood cells, 37° C., 2h, first concentration with ODtest-OD negative >0.1

SMILES	IC50 (Lung cancer H460 cells) [nM]	MHC (human red blood cells; hemolytic concentration, in nM) [nM]	MHC (human red blood cells; [10]) [µg/mL]	IC50 [1] [nM]	IC50 [2] [nM]	IC50 (Melanoma B16 cells) [nM]	LD50 at 7 days [3] [mg/kg]	IC50 (Lung cancer H292 cells) [nM]	IC50 [4] [nM]	IC50 (Lung cancer H1299 cells) [nM]	Tumor inhibition rate (HepG-2 liver tumors)	Tumor weight (HepG-2 liver tumors) [mg]	Body Weight After administration (HepG-2 liver tumors) [g]	IC50 [5] [nM]	IC50 [6] [nM]	IC50 [7] [nM]	IC50 [8] [nM]	IC50 (Colon cancer HT29 cells) [nM]	IC50 [9] [nM]	IC50 (Lung cancer A549 cells) [nM]	further results
CC1(C)CC(NC(=O)C(Cc2ccc(-c3ccccc3)cc2)NC(=O)c2cc3ccccc3n2Cc2ccccc2)CC(C)(C)N1 (stereo not drawn) [PL-AC-15, reference compound]	22	1.6e+06	1000	25.8	81.7	30.5	23.6	28.3	16.2	24.4	66.7** %	549.9 ± 10.2	23.8 ± 1.0	26.4	32	19.7	48.9	38.2	23.2	31.2	Tumor inhibition rate (SK-hep1 liver tumors): 60.6** %; Tumor weight (SK-hep1 liver tumors): 441.5 ± 10.8 mg; Body Weight After administration (SK-hep1 liver tumors): 23.2 ± 0.3 g; Tumor inhibition rate (Bel-7402 liver tumors): 61.8** %; Tumor weight (Bel-7402 liver tumors): 302.9 ± 0.8 mg; Body Weight After administration (Bel-7402 liver tumors): 25.2 ± 1.1 g
CC(=O)Oc1ccccc1C(=O)NC(Cc1ccc(-c2ccccc2)cc1)C(=O)NC1CC(C)(C)NC(C)(C)C1 (stereo not drawn) [PL-AC-201]	21.9	5.8e+06	3000	24.8	50.2	29.8	27.2	22.3	16.1	23.7	69.3** %	506.9 ± 9.4	22.9 ± 1.4	16.2	28.2	19.5	52.1	35.9	24.3	29.9	Tumor inhibition rate (SK-hep1 liver tumors): 61.2** %; Tumor weight (SK-hep1 liver tumors): 434.7 ± 9.4 mg; Body Weight After administration (SK-hep1 liver tumors): 23.7 ± 1 g; Tumor inhibition rate (Bel-7402 liver tumors): ^ΔΔ66.2** %; Tumor weight (Bel-7402 liver tumors): 268.1 ± 9.6 mg; Body Weight After administration (Bel-7402 liver tumors): 23.2 ± 1.0 g
COc1ccc2cc(C(C)C(=O)NC(Cc3ccc(-c4ccccc4)cc3)C(=O)NC3CC(C)(C)NC(C)(C)C3)ccc2c1 (stereo not drawn) [PL-AC-202]	18.5	5.1e+06	3000	24.1	45.6	28.4	34.8	20.1	15.8	19.8	^ΔΔ75.4** %	406.2 ± 5.9	22.8 ± 0.8	11.5	24	16.1	35.1	32.5	21.1	23.2	Tumor inhibition rate (SK-hep1 liver tumors): ^ΔΔ71.7** %; Tumor weight (SK-hep1 liver tumors): 317.1 ± 8.7 mg; Body Weight After administration (SK-hep1 liver tumors): 24.9 ± 1.0 g; Tumor inhibition rate (Bel-7402 liver tumors): ^ΔΔ73.1** %; Tumor weight (Bel-7402 liver tumors): 213.3 ± 9.3 mg; Body Weight After administration (Bel-7402 liver tumors): 22.9 ± 1.1 g
CC1(C)CC(NC(=O)C(Cc2ccc(-c3ccccc3)cc2)NC(=O)Cc2ccccc2Nc2c(Cl)cccc2Cl)CC(C)(C)N1 (stereo not drawn) [PL-AC-203]	20.8	3e+06	2000	26	45.4	30.1	39.8	24.9	16	20.5	^ΔΔ72.4** %	455.8 ± 9.9	22.7 ± 1.7	22.6	27.7	20	49.4	37	23.1	24.2	Tumor inhibition rate (SK-hep1 liver tumors): ^ΔΔ68.3** %; Tumor weight (SK-hep1 liver tumors): 355.2 ± 1.2 mg; Body Weight After administration (SK-hep1 liver tumors): 24.7 ± 0.5 g; Tumor inhibition rate (Bel-7402 liver tumors): 58.7** %; Tumor weight (Bel-7402 liver tumors): 327.4 ± 10.4 mg; Body Weight After administration (Bel-7402 liver tumors): 24.1 ± 0.9 g
C/C(=C1/c2ccc(F)cc2C(CC(=O)NC(Cc2ccc(-c3ccccc3)cc2)C(=O)NC2CC(C)(C)NC(C)(C)C2)C1C)c1ccc([S+](C)[O-])cc1 (stereo not drawn) [PL-AC-204]	21.6	4.1e+06	3000	24.5	40.7	30.5	29.9	27.6	15.9	21.6	65.1** %	576.3 ± 10.7	23.1 ± 1.0	23.6	28.1	19.2	49.4	37.4	23.1	29.8	–
COc1ccc2c(c1)c(CC(=O)NC(Cc1ccc(-c3ccccc3)cc1)C(=O)NC1CC(C)(C)NC(C)(C)C1)c(C)n2C(=O)c1ccc(Cl)cc1 (stereo not drawn) [PL-AC-205]	20.3	4.2e+06	3000	25.7	< 38.2	31.7	35.6	27.4	16.2	20.3	^Δ71.8** %	465.6 ± 5.9	21.9 ± 1.2	12.4	25.3	19.5	45.3	37	23.2	24.5	Tumor inhibition rate (SK-hep1 liver tumors): 62.0** %; Tumor weight (SK-hep1 liver tumors): 425.8 ± 10.7 mg; Body Weight After administration (SK-hep1 liver tumors): 22.2 ± 0.9 g; Tumor inhibition rate (Bel-7402 liver tumors): ^ΔΔ69.4** %; Tumor weight (Bel-7402 liver tumors): 242.8 ± 6.6 mg; Body Weight After administration (Bel-7402 liver tumors): 23.9 ± 0.6 g

Source: patent US12552747B2, “Amino acid derivative containing non-steroidal anti-inflammatory drug structure and preparation method and application thereof” (priority 2020, dated 2026)
